Laboratory results from patent publication US20100209378A1, “Dimethylcyclohexyl Derivatives as Malodor Neutralizers” (GIVAUDAN SA, priority 2007, published 2010).

Tests used:
[1] = Headspace GC/MS malodor reduction, allyl disulphide; details: 0.5 g test compound, 10 ul malodor in 1 l headspace jar, 60 minutes contact at 25° C.
Experimental: (§1) Amines are key contributors to many household malodors. Sulfides are present in odors associated with bad breath. In order to assess the malodor reduction efficacy of the compounds of the present invention, they were evaluated for their ability to reduce hexyl amine malodor and allyl disulphide by the following method.
(§2) A one liter glass headspace collection jar had placed inside it a 25 ml stoppered glass container which contained 0.5 g of a test compound. 10 ul of hexyl amine or allyl disulphide mercaptan as a representative malodor was injected into the headspace jar. This was left for 15 minutes at 25° C. to equilibrate. One ml/minute of the headspace was drawn for one minute through a Tenax™ headspace trap. The Tenax™ trap was removed and thermally desorbed into an Agilent 6890 GC/MS to analyze the quantity of hexyl amine and allyl disulphide mercaptan respectively in the headspace to determine the initial concentration of the hexyl amine malodor/ally disulphide mercaptan. The glass stopper was removed from the container and the test component and the malodor were left in contact for 60 minutes at 25° C. One ml/minute of the headspace was drawn for one minute through a Tenax™ trap and the amount of malodor remaining was determined as above.

[2] = Headspace GC/MS malodor reduction, onion oil; details: method of Example 4; diallyl sulfide and diallyl disulfide measured as standard
Experimental: as §2
(§3) Evaluation of the malodor reduction potential of the compounds of the present invention on malodors of natural garlic oil and onion oil using the methodology described in Example 4 is shown in Table 2. As standard for determining the reduction of onion oil odor the amount of diallyl sulfide and diallyl disulfide were measured, and propyl methyl disulfide and dipropyl disulfide for determining the reduction of garlic oil odor.

[3] = Sensory panel (LMS) reduction of synthetic axilla malodor on cotton pads; details: 100 ul of 1% solution of test compound on pad with 100 ul 0.1% axilla malodor; panel of 20, LMS
Experimental: A 0.1% ethanol solution of synthetic axilla malodor was prepared and a 100 ul aliquot was placed onto cotton pads. 1% solutions of test compounds were prepared and 100 ul dosed on to the axilla treated pads. One pad was left untreated as the control. Each pad was allowed to dry for 15 minutes. The test cotton pads were randomized, and a panel of 20 was used. Each panelist was asked to check a box that represented the strength of the axilla malodor using a Labeled Magnitude Scale (LMS) (Barry G. Green, Pamela Dalton, Beverly Cowart, Greg Shaffer, Krystyna Rankin and Jennifer Higgins. Evaluating the Labeled Magnitude Scale for Measuring Sensations of Taste and Smell. Chemical Senses. Vol. 21, pp 323-334, 1996).
The % reduction of malodor was calculated by: […]
Composition 1 was compared with composition 2 for malodor reduction efficiency using the method described in Example 6.

[4] = Headspace GC/MS malodor reduction, garlic oil; details: method of Example 4; propyl methyl disulfide and dipropyl disulfide measured as standard
Experimental: as §2, §3

[5] = Headspace GC/MS malodor reduction, hexyl amine; details: 0.5 g test compound, 10 ul malodor in 1 l headspace jar, 60 minutes contact at 25° C.
Experimental: as §1, §2

Which “% Reduction of allyl disulphide” value [1] does the source give for `CC(OCC(=O)O)C1CCCC(C)(C)C1` (stereo not shown) [Compound B, 2-(1-(3,3-dimethylcyclohexyl)ethoxy)acetic acid] here?
Its value is 74.6%.

What about the “% Reduction of onion oil odor” value [2] of the same molecule?
Its value is 66.3%.

And the “% Reduction of Axilla” value [3]?
The value was 67.6%.

And the “% Reduction of garlic oil odor” value [4]?
Its value is 73.2%.

What about the “% Reduction of hexyl amine” value [5] of the same molecule?
The value was 91.4%.

For `CC(O)C(=O)OC(C)C1CCCC(C)(C)C1` (stereo not shown) [Compound A, 1-(3,3-dimethylcyclohexyl)ethyl 2-hydroxypropanoate], which “% Reduction of allyl disulphide” value [1] is on record?
Its value is 81.5%.

And the “% Reduction of onion oil odor” value [2]?
Its value is 87.2%.

What about the “% Reduction of Axilla” value [3] of the same molecule?
Its value is 77.2%.

What about the “% Reduction of garlic oil odor” value [4] of the same molecule?
Its value is 87.7%.

And the “% Reduction of hexyl amine” value [5]?
The value was 80.3%.

Which results are given for `CC(OCCO)C1CCCC(C)(C)C1` (stereo not shown) [Compound C, 2-(1-(3,3-dimethylcyclohexyl)ethoxy)ethanol]?
% Reduction of allyl disulphide [1]: 70.2%; % Reduction of onion oil odor [2]: 78.4%; % Reduction of Axilla [3]: 61.4%; % Reduction of garlic oil odor [4]: 67.4%; % Reduction of hexyl amine [5]: 71.2%

Which “% Reduction of Axilla” value [3] does the source give for `CC(C)=CCCC(C)CCOC(=O)C=C(C)C` (stereo not shown) [citronellyl methylcrotonate, reference compound] here?
The value was 53.1%.
